ChEMBL document CHEMBL5647694, “Novel orally bioavailable EZH1/2 dual inhibitors with greater antitumor efficacy than an EZH2 selective inhibitor” (Cancer Sci, 2017)

Columns and labels:
[1] = Toxicity in Crl:CD Sprague-Dawley rat assessed as abnormal clinical signs at 100 mg/kg, po administered daily for 14 days; assay type: organism-based; conditions: in vivo, 336 h, time 14 day
[2] = molecular target: CDC7/DBF4 (Cell division cycle 7-related protein kinase/Activator of S phase kinase) (Homo sapiens) (UniProt Q9UBU7+O00311); assay: Inhibition of N-terminal GST-tagged full length human CDC7 (1 to 574 residues)/N-terminal GST-tagged ASK (1 to 674 residues) expressed in baculovirus-infected Sf21 cells using MCM2 peptide as substrate at 1 uM in presence of ATP by Mobility shift assay
[3] = molecular target: Protein kinase C delta type (Homo sapiens) (UniProt Q05655); assay: Inhibition of N-terminal GST-fused human full length PKC-delta (1 to 676 residues ) expressed in baculovirus expression system using PKC peptide as substrate at 1 uM in presence of ATP by Mobility shift assay
KARPAS-422 = assay: Antitumor activity against human KARPAS-422 cells xenografted in CB17/Icr-Prkdcscid/CrlCrlj mouse assessed as inhibition of tumor growth administered orally BID for 14 days; assay type: functional, cell-based; conditions: dose 3.1-50 mg/kg, route po, time 14.0 day
[4] = Cmax in Crl:CD Sprague-Dawley rat at 100 mg/kg, po administered daily for 14 days by LC/MS/MS analysis; assay type: ADME, organism-based; conditions: in vivo, 336 h, time 14 day
[5] = Mean AUC (0-24 hrs) in Crl:CD Sprague-Dawley rat at 100 mg/kg, po by LC/MS/MS analysis; assay type: ADME, organism-based; conditions: in vivo
[6] = Toxicity in Crl:CD Sprague-Dawley rat assessed as reticulocyte percentile in blood at 100 mg/kg, po administered daily for 14 days (reference value: 4.68+/-0.802%); assay type: organism-based; conditions: in vivo, 336 h, time 14 day
[7] = Toxicity in Crl:CD Sprague-Dawley rat assessed as neutrophil count in blood at 100 mg/kg, po administered daily for 14 days (reference value: 1.73+/-0.276 10^3/uL); assay type: organism-based; conditions: in vivo, 336 h, time 14 day
[8] = Toxicity in Crl:CD Sprague-Dawley rat assessed as platelet count in blood at 100 mg/kg, po administered daily for 14 days (reference value: 1160+/-65.1 10^3/uL); assay type: organism-based; conditions: in vivo, 336 h, time 14 day
[9] = Toxicity in Crl:CD Sprague-Dawley rat assessed as triglyceride level in blood at 100 mg/kg, po administered daily for 14 days (reference value: 132 +/-30 mg/dL); assay type: organism-based; conditions: in vivo, 336 h, time 14 day
[10] = Toxicity in Crl:CD Sprague-Dawley rat assessed as sodium level in blood at 100 mg/kg, po administered daily for 14 days (reference value: 141+/-0.82 mEq/L); assay type: organism-based; conditions: in vivo, 336 h, time 14 day
[11] = molecular target: Protein arginine N-methyltransferase 8 (Homo sapiens, UniProt Q9NR22); assay: Inhibition of human PRMT8 using Histone H4 and [3H]SAM as substrate incubated for 30 mins to 1 hr by HotSpot kinase assay
Jurkat = assay: Antitumor activity against human Jurkat cells clone E6-1 assessed as cell growth inhibition treated for 10 to 15 days; assay type: functional; conditions: time 10-15 day
NALM-6 = assay: Antitumor activity against human NALM-6 cells assessed as cell growth inhibition treated for 10 to 15 days; assay type: functional; conditions: time 10-15 day
SUP-T1 = assay: Antitumor activity against human SUP-T1 cells assessed as cell growth inhibition treated for 10 to 15 days; assay type: functional; conditions: time 10-15 day
[12] = Antitumor activity against human CMK-86 cells assessed as cell growth inhibition treated for 10 to 15 days; assay type: functional; conditions: time 10-15 day
[13] = Antitumor activity against human Kasumi-3 cells assessed as cell growth inhibition treated for 10 to 15 days; assay type: functional; conditions: time 10-15 day
HT = assay: Antitumor activity against human HT cells assessed as cell growth inhibition treated for 10 to 15 days; assay type: functional; conditions: time 10-15 day
MLMA = assay: Antitumor activity against human MLMA cells assessed as cell growth inhibition treated for 10 to 15 days; assay type: functional; conditions: time 10-15 day
SR = assay: Antitumor activity against human SR cells assessed as cell growth inhibition treated for 10 to 15 days; assay type: functional; conditions: time 10-15 day
Rec1 = assay: Antitumor activity against human REC1 cells assessed as cell growth inhibition treated for 10 to 15 days; assay type: functional; conditions: time 10-15 day
HH = assay: Antitumor activity against human HH cells assessed as cell growth inhibition treated for 10 to 15 days; assay type: functional; conditions: time 10-15 day
[14] = Antitumor activity against human MJ cells assessed as cell growth inhibition treated for 10 to 15 days; assay type: functional; conditions: time 10-15 day
MDA-MB-175-VII = assay: Antitumor activity against human MDA-MB-175-VII cells assessed as cell growth inhibition treated for 10 to 15 days; assay type: functional; conditions: time 10-15 day
HCC1569 = assay: Antitumor activity against human HCC1569 cells assessed as cell growth inhibition treated for 10 to 15 days; assay type: functional; conditions: time 10-15 day
HCC38 = assay: Antitumor activity against human HCC38 cells assessed as cell growth inhibition treated for 10 to 15 days; assay type: functional; conditions: time 10-15 day
MDA-MB-436 = assay: Antitumor activity against human MDA-MB-436 cells assessed as cell growth inhibition treated for 10 to 15 days; assay type: functional; conditions: time 10-15 day
T47D = assay: Antitumor activity against human T47D cells assessed as cell growth inhibition treated for 10 to 15 days; assay type: functional; conditions: time 10-15 day
SNU-449 = assay: Antitumor activity against human SNU-449 cells assessed as cell growth inhibition treated for 10 to 15 days; assay type: functional; conditions: time 10-15 day
DMS-114 = assay: Antitumor activity against human DMS-114 cells assessed as cell growth inhibition treated for 10 to 15 days; assay type: functional; conditions: time 10-15 day
A-427 = assay: Antitumor activity against human A-427 cells assessed as cell growth inhibition treated for 10 to 15 days; assay type: functional; conditions: time 10-15 day
NCI-H1694 = assay: Antitumor activity against human NCI-H1694 cells assessed as cell growth inhibition treated for 10 to 15 days; assay type: functional; conditions: time 10-15 day
TOV112D = assay: Antitumor activity against human TOV112D cells assessed as cell growth inhibition treated for 10 to 15 days; assay type: functional; conditions: time 10-15 day
A2780 = assay: Antitumor activity against human A2780 cells assessed as cell growth inhibition treated for 10 to 15 days; assay type: functional; conditions: time 10-15 day
OVCAR-3 = assay: Antitumor activity against human OVCAR-3 cells assessed as cell growth inhibition treated for 10 to 15 days; assay type: functional; conditions: time 10-15 day
[15] = Antitumor activity against human OV7 cells assessed as cell growth inhibition treated for 10 to 15 days; assay type: functional; conditions: time 10-15 day
NUGC-3 = assay: Antitumor activity against human NUGC-3 cells assessed as cell growth inhibition treated for 10 to 15 days; assay type: functional; conditions: time 10-15 day
Hs746T = assay: Antitumor activity against human Hs746T cells assessed as cell growth inhibition treated for 10 to 15 days; assay type: functional; conditions: time 10-15 day
MKN-45 = assay: Antitumor activity against human MKN-45 cells assessed as cell growth inhibition treated for 10 to 15 days; assay type: functional; conditions: time 10-15 day
MKN-7 = assay: Antitumor activity against human MKN-7 cells assessed as cell growth inhibition treated for 10 to 15 days; assay type: functional; conditions: time 10-15 day
SNU1 = assay: Antitumor activity against human SNU1 cells assessed as cell growth inhibition treated for 10 to 15 days; assay type: functional; conditions: time 10-15 day
HT1197 = assay: Antitumor activity against human HT1197 cells assessed as cell growth inhibition treated for 10 to 15 days; assay type: functional; conditions: time 10-15 day
A204 = assay: Antitumor activity against human A204 cells assessed as cell growth inhibition treated for 10 to 15 days; assay type: functional; conditions: time 10-15 day

With `Cc1cc(C)c(CNC(=O)c2cc(Br)c3c(c2C)O[C@@](C)([C@H]2CC[C@H](N(C)C)CC2)O3)c(=O)[nH]1` the Activity [1] was “Non-Toxic”, the inhibition [2] was -5.5% and the inhibition [3] was 1.5%. For the same compound, the Activity (KARPAS-422) was “Dose-Dependent Effect”, the Cmax [4] was 2440 nM and the AUC [5] was 25.2 µM·h. The Activity [6] was 4.48%, the Activity [7] was 0.583 10^3 /uL and the Activity [8] was 1120 10^3 /uL. For the same compound, the Activity [9] was 90 mg/dL and the Activity [10] was 142 mEq/L.

In the case of `Cc1cc(C)c(CNC(=O)c2cc(Cl)c3c(c2C)O[C@@](C)([C@H]2CC[C@H](N(C)C)CC2)O3)c(=O)[nH]1` [VALEMETOSTAT], the IC50 [11] is reported as 100 µM, the inhibition [2] is reported as -6.7% and the inhibition [3] is reported as 2.7%. The GI50 (Jurkat) was greater than 1000 nM, the GI50 (NALM-6) was greater than 1000 nM and the GI50 (SUP-T1) was greater than 1000 nM. For the same compound, the GI50 [12] was 444 nM, the GI50 [13] was greater than 1000 nM and the GI50 (HT) was 1.74 nM. The GI50 (MLMA) was 273 nM, the GI50 (SR) was 388 nM and the GI50 (Rec1) was 480 nM. The GI50 (HH) was 7.18 nM, the GI50 [14] was 26 nM and the GI50 (MDA-MB-175-VII) was 43.9 nM. For the same compound, the GI50 (HCC1569) was greater than 1000 nM, the GI50 (HCC38) was greater than 1000 nM and the GI50 (MDA-MB-436) was greater than 1000 nM. It also gave a GI50 (T47D) greater than 1000 nM, a GI50 (SNU-449) greater than 1000 nM and a GI50 (DMS-114) of 5.5 nM. It also gave a GI50 (A-427) greater than 1000 nM, a GI50 (NCI-H1694) greater than 1000 nM and a GI50 (TOV112D) of 15.4 nM. The GI50 (A2780) was 36 nM, the GI50 (OVCAR-3) was greater than 1000 nM and the GI50 [15] was greater than 1000 nM. It also gave a GI50 (NUGC-3) of 920 nM, a GI50 (Hs746T) greater than 1000 nM and a GI50 (MKN-45) greater than 1000 nM. For the same compound, the GI50 (MKN-7) was greater than 1000 nM, the GI50 (SNU1) was greater than 1000 nM and the GI50 (HT1197) was 13.1 nM. The GI50 (A204) was 29.2 nM.
